Paper PMC2653597 (Journal of chromatography. A, 2008)

Key:
[1] = target: immobilized human recombinant butyrylcholinesterase (rBChE) (Homo sapiens, UniProt P06276); test: rBChE-IMER on-line carbamoylation/decarbamoylation kinetics; assay type: biochemical; details: immobilized enzyme, 30 °C, flow rate 1.0 mL/min
[2] = target: human recombinant BChE (rBChE) in solution (Homo sapiens, UniProt P06276); test: in solution stopped time assay for carbamoylation constants; assay type: biochemical; details: enzyme in solution, classical Ellman's assay
human recombinant BChE (rBChE) in solution, sequence (P06276 29-602): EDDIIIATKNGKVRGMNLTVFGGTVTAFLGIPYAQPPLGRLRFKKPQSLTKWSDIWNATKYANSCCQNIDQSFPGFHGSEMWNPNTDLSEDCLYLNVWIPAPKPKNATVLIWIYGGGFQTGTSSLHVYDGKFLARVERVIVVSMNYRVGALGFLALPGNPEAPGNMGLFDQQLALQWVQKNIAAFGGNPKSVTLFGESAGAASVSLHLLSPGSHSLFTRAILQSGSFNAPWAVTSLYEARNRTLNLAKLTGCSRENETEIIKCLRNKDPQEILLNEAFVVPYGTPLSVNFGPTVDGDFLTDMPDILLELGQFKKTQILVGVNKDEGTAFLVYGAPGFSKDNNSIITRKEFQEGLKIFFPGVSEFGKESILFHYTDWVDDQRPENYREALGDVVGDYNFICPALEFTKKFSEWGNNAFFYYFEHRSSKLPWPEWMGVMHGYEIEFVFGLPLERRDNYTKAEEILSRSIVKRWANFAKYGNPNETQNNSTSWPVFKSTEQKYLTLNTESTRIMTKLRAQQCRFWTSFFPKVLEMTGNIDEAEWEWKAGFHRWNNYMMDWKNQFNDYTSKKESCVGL

immobilized human recombinant butyrylcholinesterase (rBChE), sequence (P06276 29-602): as above

Row | Compound | carbamoylation constant k2, rBChE-IMER [1] | carbamoylation constant k2, rBChE in solution [2]
1 | CC(C)c1ccc(NC(=O)Oc2ccc3c(c2)[C@]2(C)CCN[C@@H]2N3)cc1 [(-)-Bisnorcymserine] | 0.081 ± 0.004 min⁻¹ | 0.573 ± 0.068 min⁻¹
2 | CN1CC[C@@]2(C)c3cc(OC(=O)Nc4ccccc4)ccc3N(C)[C@@H]12 [(-)-Phenserine, 3aS-(-)-phenylcarbamoyleseroline] | 0.486 ± 0.037 min⁻¹ | 3.094 ± 0.536 min⁻¹
3 | CNC(=O)Oc1ccc2c(c1)[C@]1(C)CCN(C)[C@@H]1N2C [(-)-Physostigmine, (-)-physostigmine, reference compound] | 0.161 ± 0.025 min⁻¹ | 0.479 ± 0.070 min⁻¹
4 | CC(C)Cc1ccc(NC(=O)Oc2ccc3c(c2)[C@]2(C)CCN[C@@H]2N3)cc1 [(-)-Isobutylbisnorcymserine] | 0.049 ± 0.002 min⁻¹ | 0.634 ± 0.022 min⁻¹
